The values below come from patent publication US10722518B2, “Oxazine derivative for use in the treatment or prevention of cerebral amyloid angiopathy” (Novartis AG, priority 2016, dated 2020).

Read-outs that look alike come from different tables or passages of the source.

The nature of the data set: 3-month dose-ranging study: plasma pharmacokinetics on Day 91. Type of data set: in vivo. The conditions noted are these: human, oral, read-out: expected plasma Cmax,ss.

On to `C[C@@]1(c2nc(NC(=O)c3ncc(C(F)(F)F)cc3Cl)ccc2F)CO[C@@](C)(C(F)(F)F)C(N)=N1` [Compound 1, N-(6-((3R,6R)-5-amino-3,6-dimethyl-6-(trifluoromethyl)-3,6-dihydro-2H-1,4-oxazin-3-yl)-5-fluoropyridin-2-yl)-3-chloro-5-(trifluoromethyl)picolinamide], for which the maximum concentration (Cmax) reads like this: (once daily dose of 15 mg) 70 to 170 ng/mL; (once daily dose of 50 mg) 200 to 500 ng/mL.

As a reminder, the Cmax is the peak of the concentration-time curve.
